# According to the supplement of paper PMC13380429:
# Assays:
# Conditions in all cases: 72 h
# [1] = tested on: HepG2; assay: drug sensitivity score (DSS) for viability; higher = more toxic; extreme values may be limits of the assay
# [2] = tested on: Caco-2; assay: as above
# [3] = tested on: U2OS; assay: as above
# [4] = tested on: Calu-3; assay: as above
# [5] = tested on: Vero E6; assay: as above
# [6] = tested on: HepG2; assay: cell viability relative to DMSO; higher = less toxic
# [7] = tested on: Caco-2; assay: as above
# [8] = tested on: U2OS; assay: as above
# [9] = tested on: Calu-3; assay: as above
# [10] = tested on: Vero E6; assay: as above
# [11] = tested on: HepG2; assay: relative viability EC50 (midpoint between 100% and the lowest measured viability); higher = less toxic
# [12] = tested on: Caco-2; assay: as above
# [13] = tested on: U2OS; assay: as above
# [14] = tested on: Calu-3; assay: as above
# [15] = tested on: Vero E6; assay: as above
Structure (SMILES),drug sensitivity score [1],drug sensitivity score [2],drug sensitivity score [3],drug sensitivity score [4],drug sensitivity score [5],cell viability ([6]; 1 nM),cell viability ([6]; 10 nM),cell viability ([6]; 100 nM),cell viability ([6]; 1000 nM),cell viability ([6]; 10000 nM),cell viability ([7]; 1 nM),cell viability ([7]; 10 nM),cell viability ([7]; 100 nM),cell viability ([7]; 1000 nM),cell viability ([7]; 10000 nM),cell viability ([8]; 1 nM),cell viability ([8]; 10 nM),cell viability ([8]; 100 nM),cell viability ([8]; 1000 nM),cell viability ([8]; 10000 nM),cell viability ([9]; 1 nM),cell viability ([9]; 10 nM),cell viability ([9]; 100 nM),cell viability ([9]; 1000 nM),cell viability ([9]; 10000 nM),cell viability ([10]; 1 nM),cell viability ([10]; 10 nM),cell viability ([10]; 100 nM),cell viability ([10]; 1000 nM),cell viability ([10]; 10000 nM),relative viability EC50 [11],relative viability EC50 [12],relative viability EC50 [13],relative viability EC50 [14],relative viability EC50 [15]
O=C(O)COc1nn(Cc2ccccc2)c2ccccc12 [bendazac],0,0,0,0,0,91.7%,104%,97.3%,94.1%,98.7%,109%,96.3%,103%,97.6%,102%,91.7%,95.3%,98.9%,92.3%,96.1%,86.6%,83.3%,104%,103%,104%,101%,101%,99%,103%,98.8%,> 10 µM,> 10 µM,> 10 µM,> 10 µM,> 10 µM
CN(C)CCCOc1nn(Cc2ccccc2)c2ccccc12 [benzydamine],0,0,0,0,0.5,97.7%,102%,95.1%,91.4%,89.8%,86.2%,94.3%,73.1%,80.3%,87.1%,101%,96.5%,100%,95.6%,91.2%,98.8%,91.7%,95.6%,101%,90.5%,98.7%,105%,98.3%,96.9%,85.5%,> 10 µM,> 10 µM,> 10 µM,> 10 µM,> 10 µM
COc1cc(OC)c(/C=C/S(=O)(=O)Cc2ccc(OC)c(OP(=O)(O)O)c2)c(OC)c1 [briciclib],17,17.5,17.5,7.4,25.5,113%,108%,56.1%,36%,38.7%,106%,103%,45.1%,42%,42.9%,102%,104%,73.4%,23.7%,18.2%,101%,108%,94.9%,65.2%,41%,95.9%,92.2%,23.6%,21.2%,26.9%,0.0738 µM,0.0392 µM,0.161 µM,0.75 µM,0.0246 µM
CCCCN1CCCCC1C(=O)Nc1c(C)cccc1C (stereo not given) [bupivacaine],0,0,0,0,0,100%,106%,92.7%,97.2%,103%,85.3%,88.2%,71.6%,96.7%,82.9%,95.7%,96.7%,94.6%,103%,95.7%,95.9%,101%,80.2%,99.1%,88.4%,103%,103%,104%,98.7%,99.6%,> 10 µM,> 10 µM,> 10 µM,> 10 µM,> 10 µM
CC(NC(C)(C)C)C(=O)c1cccc(Cl)c1 (stereo not given) [bupropion],0,0,0,0,1.3,100%,103%,103%,105%,95%,90.3%,90.6%,86.4%,105%,91.6%,95.1%,96%,99%,94.4%,93.8%,104%,96.3%,101%,106%,101%,107%,105%,102%,92.1%,81.7%,> 10 µM,> 10 µM,> 10 µM,> 10 µM,> 10 µM
Cn1nc(C(C)(C)C)cc1C(=O)N[C@@H](Cc1cccc(Cl)c1)C(=O)NCC#N [cathepsin-inhibitor-1],0,0,0,0,0,94%,103%,112%,90.8%,98.4%,99.8%,99.3%,86.7%,93.5%,92.3%,97.7%,99.1%,92.8%,94.2%,90.9%,103%,89.1%,105%,94.9%,91.8%,95%,99.3%,102%,96.2%,98.4%,> 10 µM,> 10 µM,> 10 µM,> 10 µM,> 10 µM
CCCCCCCCCCCCCCCC[n+]1ccccc1 [cetylpyridinium],9.8,9.1,8,5.4,5.9,106%,95.4%,89.2%,58.2%,14.6%,103%,99%,101%,66.4%,16.5%,103%,102%,104%,80.9%,10.1%,104%,99.9%,105%,84.3%,44.1%,96.2%,97.5%,98.1%,91.6%,19.2%,0.929 µM,1.17 µM,1.68 µM,1.46 µM,2.3 µM
NS(=O)(=O)c1cc2c(cc1Cl)N=CNS2(=O)=O [chlorothiazide],0,0.1,0,0,0,102%,102%,95.9%,97.8%,99%,92.4%,99.8%,95.3%,91%,86.6%,98.1%,102%,96.6%,106%,99%,85.8%,88.9%,103%,102%,96.6%,97.8%,103%,96.3%,96.8%,96.7%,> 10 µM,> 10 µM,> 10 µM,> 10 µM,> 10 µM
Cc1ccc2c(Cl)cc(Cl)c(O)c2n1 [chlorquinaldol],0,0,0,0,0,89.3%,95.5%,99.1%,84.4%,108%,107%,91.3%,96.7%,91.4%,103%,96.8%,102%,97.8%,102%,100%,92.4%,99.9%,84.2%,86.9%,108%,93.3%,88.9%,99.2%,86.6%,103%,> 10 µM,> 10 µM,> 10 µM,> 10 µM,> 10 µM
COc1ccc([C@]2(C#N)CC[C@@H](C(=O)O)CC2)cc1OC1CCCC1 [cilomilast],0,0,0,0.3,0,89.4%,93.6%,98.3%,97.2%,104%,98.3%,91.3%,106%,106%,100%,103%,97.4%,99.7%,100%,100%,97.8%,112%,102%,88.9%,95.9%,88.2%,98.7%,89.8%,95.9%,97.9%,> 10 µM,> 10 µM,> 10 µM,> 10 µM,> 10 µM
CCCCOc1cc(C(=O)NCCN(CC)CC)c2ccccc2n1 [cinchocaine],0.1,0.3,0,0,0,97.2%,107%,102%,94.7%,89.2%,99.9%,95%,103%,94.2%,88.1%,100%,98.2%,101%,98.1%,101%,96.6%,94.4%,97.4%,94.3%,92.3%,103%,104%,97.8%,103%,94.1%,> 10 µM,> 10 µM,> 10 µM,> 10 µM,> 10 µM
CN(CCOP(=O)(O)O)C(=N)N [creatinol-phosphate],0,0,0,0,0,88.7%,94.6%,101%,105%,92.4%,102%,99.5%,93.6%,101%,90.7%,92.5%,95.6%,94.7%,93.3%,93.4%,104%,94.2%,105%,92.8%,98.5%,103%,97.8%,98.4%,104%,97.8%,> 10 µM,> 10 µM,> 10 µM,> 10 µM,> 10 µM
C[C@H]1COC2=C1C(=O)C(=O)c1c2ccc2c1CCCC2(C)C [cryptotanshinone],0,0.1,0,0,0,97.3%,93.3%,97.2%,98.9%,98%,97.2%,93%,98.1%,102%,85.4%,101%,103%,100%,101%,94.4%,111%,111%,99.1%,107%,108%,95%,102%,103%,98.5%,100%,> 10 µM,> 10 µM,> 10 µM,> 10 µM,> 10 µM
NS(=O)(=O)c1cc2c(cc1Cl)NC(CC1CCCC1)NS2(=O)=O (stereo not given) [cyclopenthiazide],0,0,0,0,0,111%,103%,101%,99.1%,102%,102%,106%,90.4%,98.6%,90.4%,100%,104%,98.8%,107%,96.6%,96.8%,105%,97.6%,97.7%,96.4%,102%,91%,98.9%,94.9%,99.9%,> 10 µM,> 10 µM,> 10 µM,> 10 µM,> 10 µM
